In this experiment the test system is Mpl-expressing Ba/F3 cell line (human mpl gene). In words: Measurement of thrombopoietin (TPO) activity: viable cell count of Mpl-expressing Ba/F3 cell line (Cell Count Reagent SF, absorbance 450 nm). It counts as cell-based. To be noted: for Concentration: concentration corresponding to the maximum TPO activity value; for TPO activity: maximum TPO activity value, ODt/ODs×100 relative to maximum reaction of human TPO, Mpl-expressing Ba/F3 cells cultured at 37° C. for one day, at the concentration given. The procedure:
The TPO activities of the compounds of the invention obtained in the aforementioned examples were measured by the procedure described below, for evaluation of their thrombopoietic effects.
Establishment of Mpl-expressing Ba/F3 Cell Line
The human mpl gene was cloned from cDNAs of the human erythroleukemia cell line HEL by PCR, and was incorporated into pCOS1 to construct an expression vector. The expression vector was transfected into Ba/F3 cells by electroporation method, and an Mpl-expressing Ba/F3 clone was established.
Measurement of Thrombopoietin (TPO) Activity
The cytokine-eliminated Mpl-expressing Ba/F3 line was plated in a 96-well plate at 25,000 cells/well. DMSO solutions containing the compounds obtained in each of the examples were then prepared to different specified concentration ranges, and each solution was added to the Mpl-expressing Ba/F3 cell line (final DMSO concentration: ≦0.1%), and the cell were cultured at 37° C. for one day. Human TPO (by R&D Systems or Genzyme) was used as a positive control.
Each of the cultured Mpl-expressing Ba/F3 cell lines was subjected to absorbance measurement at a wavelength of 450 nm (reference wavelength: 620 nm), corresponding to the viable cell count, using Cell Count Reagent SF (by Nacalai Tesque Inc.). The TPO activity of each compound for the Mpl-expressing Ba/F3 cell line was determined based on the following formula. TPO activity (%)=ODt/ODs×100
ODs: Absorbance at maximum reaction of human TPO (wavelength: 450-620 nm).
ODt: Absorbance of test solution (wavelength: 450-620 nm).
Tables 1 and 2 show the maximum TPO activity values and the corresponding concentrations of each compound, as obtained by the test described above.

Structures are written as SMILES.

`Cc1[nH]c2ccccc2c1CC(=O)N[C@@H](CCCCN(C)C)C(=O)Nc1ccc(C(c2ccc(NC(=O)[C@H](CCCCN(C)C)NC(=O)Cc3c(C)[nH]c4ccccc34)cc2)c2ccc(NC(=O)[C@H](CCCCN(C)C)NC(=O)Cc3c(C)[nH]c4ccccc34)cc2)cc1` [Example 30, tris[4-[N-α-[2-(2-methyl-1H-indol-3-yl)acetyl]-N-ε-dimethyl-L-lysyl]aminophenyl]methane]: the Concentration came to 25 µM and the TPO activity was 108%.

Turning to `Cl.NCCCC[C@@H](NC(=O)[C@H](N)Cc1c[nH]c2ccccc12)C(=O)Nc1ccc(C(c2ccc(NC(=O)[C@@H](CCCCN)NC(=O)[C@H](N)Cc3c[nH]c4ccccc34)cc2)c2ccc(NC(=O)[C@@H](CCCCN)NC(=O)[C@H](N)Cc3c[nH]c4ccccc34)cc2)cc1` [Example 161, tris[4-[N-α-(D-tryptophyl)-D-lysyl]aminophenyl]methane hydrochloride], the Concentration was 25 µM and the TPO activity amounted to 65.6%.

As for `NCCCC[C@H](NC(=O)c1cccc2cc(O)ccc12)C(=O)Nc1ccc(C(c2ccc(NC(=O)[C@H](CCCCN)NC(=O)c3cccc4cc(O)ccc34)cc2)c2ccc(NC(=O)[C@H](CCCCN)NC(=O)c3cccc4cc(O)ccc34)cc2)cc1.O=C(O)C(F)(F)F` [Example 200, tris[4-[N-α-(6-hydroxynaphthalen-1-yl)carbonyl-L-lysyl]aminophenyl]methane trifluoroacetate], the Concentration is 25 µM and the TPO activity is given as 144%.

Turning to `Cl.NCCCC[C@H](NC(=O)Cc1ccsc1)C(=O)Nc1ccc(C(c2ccc(NC(=O)[C@H](CCCCN)NC(=O)Cc3ccsc3)cc2)c2ccc(NC(=O)[C@H](CCCCN)NC(=O)Cc3ccsc3)cc2)cc1` [Example 13, tris[4-[N-α-[2-(thiophen-3-yl)acetyl]-L-lysyl]aminophenyl]methane hydrochloride], the Concentration worked out at 25 µM and the TPO activity is on record as 25.7%.

In the case of `Cl.NCCCC[C@@H](NC(=O)Cc1ccccn1)C(=O)Nc1ccc(C(c2ccc(NC(=O)[C@@H](CCCCN)NC(=O)Cc3ccccn3)cc2)c2ccc(NC(=O)[C@@H](CCCCN)NC(=O)Cc3ccccn3)cc2)cc1` [Example 172, tris[4-[N-α-[2-(pyridin-2-yl)acetyl]-D-lysyl]aminophenyl]methane hydrochloride], the Concentration came out at 100 µM and the TPO activity was found to be 24.4%.

Regarding `NCCCC[C@@H](NC(=O)Cc1c[nH]c2ccccc12)C(=O)Nc1ccc(N(c2ccc(NC(=O)[C@@H](CCCCN)NC(=O)Cc3c[nH]c4ccccc34)cc2)c2ccc(NC(=O)[C@@H](CCCCN)NC(=O)Cc3c[nH]c4ccccc34)cc2)cc1.O=C(O)C(F)(F)F` [Example 201, tris[4-[N-α-[2-(1H-indol-3-yl)acetyl]-D-lysyl]aminophenyl]amine trifluoroacetate], the Concentration is 25 µM and the TPO activity was 110%.

On to `NCC[C@H](NC(=O)Cc1c[nH]c2ccccc12)C(=O)Nc1ccc(C(c2ccc(NC(=O)[C@H](CCN)NC(=O)Cc3c[nH]c4ccccc34)cc2)c2ccc(NC(=O)[C@H](CCN)NC(=O)Cc3c[nH]c4ccccc34)cc2)cc1.O=C(O)C(F)(F)F` [Example 131, tris[4-[β-aminomethyl-N-[2-(1H-indol-3-yl)acetyl]-L-alanyl]aminophenyl]methane trifluoroacetate], for which the Concentration worked out at 50 µM and the TPO activity is 88.0%.

As for `COc1ccc2[nH]c(C)c(CC(=O)N[C@@H](CCCCN)C(=O)Nc3ccc(C(c4ccc(NC(=O)[C@H](CCCCN)NC(=O)Cc5c(C)[nH]c6ccc(OC)cc56)cc4)c4ccc(NC(=O)[C@H](CCCCN)NC(=O)Cc5c(C)[nH]c6ccc(OC)cc56)cc4)cc3)c2c1.Cl` [Example 6, tris[4-[N-α-[2-(5-methoxy-2-methyl-1H-indol-3-yl)acetyl]-L-lysyl]aminophenyl]methane hydrochloride], the Concentration stood at 25 µM and the TPO activity came out at 17.4%.

`Cc1cccc2c(CC(=O)N[C@H](CCCCN)C(=O)Nc3ccc(C(c4ccc(NC(=O)[C@@H](CCCCN)NC(=O)Cc5c[nH]c6c(C)cccc56)cc4)c4ccc(NC(=O)[C@@H](CCCCN)NC(=O)Cc5c[nH]c6c(C)cccc56)cc4)cc3)c[nH]c12.Cl` [Example 155, tris[4-[N-α-[2-(7-methyl-1H-indol-3-yl)acetyl]-D-lysyl]aminophenyl]methane hydrochloride]: the Concentration stood at 25 µM and the TPO activity is given as 44.3%.

Regarding `Cc1[nH]c2ccccc2c1CC(=O)N[C@H](CCCCN)C(=O)Nc1ccc(C(c2ccc(NC(=O)[C@@H](CCCCN)NC(=O)Cc3c(C)[nH]c4ccccc34)cc2)c2ccc(NC(=O)[C@@H](CCCCN)NC(=O)Cc3c(C)[nH]c4ccccc34)cc2)cc1` [Example 21, tris[4-[N-α-[2-(2-methyl-1H-indol-3-yl)acetyl]-D-lysyl]aminophenyl]methane], the Concentration was found to be 25 µM and the TPO activity is given as 60.1%.

For `COc1ccc2[nH]c(C)c(CC(=O)N[C@@H](CCCN)C(=O)Nc3ccc(C(c4ccc(NC(=O)[C@H](CCCN)NC(=O)Cc5c(C)[nH]c6ccc(OC)cc56)cc4)c4ccc(NC(=O)[C@H](CCCN)NC(=O)Cc5c(C)[nH]c6ccc(OC)cc56)cc4)cc3)c2c1.O=C(O)C(F)(F)F` [Example 135, tris[4-[N-α-[2-(5-methoxy-2-methyl-1H-indol-3-yl)acetyl]-L-ornithyl]aminophenyl]methane trifluoroacetate], the Concentration is 50 µM and the TPO activity was 15.8%.

As for `NCCCC[C@@H](NC(=O)c1cccc(O)c1)C(=O)Nc1ccc(C(c2ccc(NC(=O)[C@@H](CCCCN)NC(=O)c3cccc(O)c3)cc2)c2ccc(NC(=O)[C@@H](CCCCN)NC(=O)c3cccc(O)c3)cc2)cc1.O=C(O)C(F)(F)F` [Example 186, tris[4-[N-α-(3-hydroxybenzoyl)-D-lysyl]aminophenyl]methane trifluoroacetate], the Concentration is 25 µM and the TPO activity came out at 35.8%.

`Cl.NCCCC[C@@H](NC(=O)c1cccc2[nH]ccc12)C(=O)Nc1ccc(C(c2ccc(NC(=O)[C@@H](CCCCN)NC(=O)c3cccc4[nH]ccc34)cc2)c2ccc(NC(=O)[C@@H](CCCCN)NC(=O)c3cccc4[nH]ccc34)cc2)cc1` [Example 152, tris[4-[N-α-(1H-indol-4-yl)carbonyl-D-lysyl]aminophenyl]methane hydrochloride]: the Concentration was 25 µM and the TPO activity is on record as 62.0%.

Take `Cl.NCCCC[C@@H](NC(=O)c1cc2cc(O)ccc2[nH]1)C(=O)Nc1ccc(C(c2ccc(NC(=O)[C@@H](CCCCN)NC(=O)c3cc4cc(O)ccc4[nH]3)cc2)c2ccc(NC(=O)[C@@H](CCCCN)NC(=O)c3cc4cc(O)ccc4[nH]3)cc2)cc1` [Example 151, tris[4-[N-α-(5-hydroxy-1H-indol-2-yl)carbonyl-D-lysyl]aminophenyl]methane hydrochloride]: the Concentration was 50 µM and the TPO activity is listed as 90.8%.

Values taken from patent US6887890B2, “Compounds exhibiting thrombopoietin-like activities” (Chugai Seiyaku Kabushiki Kaisha, priority 2000, dated 2005).
